Experimental data as given in PMC3299860 (Antiviral Research, 2012).
“Also recorded” adds a separate entry of the source.

Key:
A/Fukui/20/2004 (H3N2) = type: biochemical, human influenza virus
[1] = system: A/New Jersey/15/2007 (H1N1); type: biochemical, human influenza virus

SMILES: CC(=O)N[C@H]1[C@H]([C@H](O)[C@H](O)CO)OC(C(=O)O)=C[C@@H]1N=C(N)N [zanamivir, 4-guanidino-Neu5Ac2en]
- susceptibility to NAI (in words) (A/Fukui/20/2004 (H3N2)): susceptible
- susceptibility to NAI (in words) [1]: zanamivir-sensitive; also recorded: susceptible
